Test results from ChEMBL document CHEMBL5154793, “Discovery of Thieno[2,3-d]pyrimidine-based KRAS G12D inhibitors as potential anticancer agents via combinatorial virtual screening” (Eur J Med Chem, 2022).
pIC50: −log10 of the molar value. Active and inactive are the calls of the source. The rule behind the calls is not given here.

Legend:
CT26 [1] = experiment: Induction of apoptosis in mouse CT26 cells assessed as late apoptotic cells at 2 uM measured after 24 hrs by PI/Annexin V staining based flow cytometric analysis (reference value: 3.21%); assay type: functional
SW1990 [2] = experiment: Induction of apoptosis in human SW1990 cells assessed as necrotic cells at 2 uM measured after 24 hrs by PI/Annexin V staining based flow cytometric analysis (reference value: 2.69%); assay type: functional
NCI-H358 = experiment: Antiproliferative activity against human NCI-H358 cells harboring KRAS G12C mutant assessed as inhibition of cell viability after 24 hrs by MTT assay; assay type: functional, cell-based; conditions: NCI-H358, 24 h
[3] = Toxicity in BALB/c mouse allografted with mouse CT26 cells assessed as effect on kidney morphology at 40 to 60 mg/kg, ip administered once a day for 10 days by H and E staining based microscopic analysis; assay type: organism-based; conditions: in vivo, 240 h, dose 40-60 mg/kg, time 10 day
CT26 [4] = experiment: Induction of apoptosis in mouse CT26 cells assessed as early apoptotic cells at 4 uM measured after 24 hrs by PI/Annexin V staining based flow cytometric analysis (reference value: 11.2%); assay type: functional
SW1990 [5] = experiment: Induction of apoptosis in human SW1990 cells assessed as viable cells at 8 uM measured after 24 hrs by PI/Annexin V staining based flow cytometric analysis (reference value: 82.9%); assay type: functional; conditions: read-out: Activity
SW1990 [6] = experiment: Induction of apoptosis in human SW1990 cells assessed as early apoptotic cells at 2 uM measured after 24 hrs by PI/Annexin V staining based flow cytometric analysis (reference value: 10.7%); assay type: functional
CT26 [7] = experiment: Induction of apoptosis in mouse CT26 cells assessed as late apoptotic cells at 4 uM measured after 24 hrs by PI/Annexin V staining based flow cytometric analysis (reference value: 3.21%); assay type: functional
HCT-116 = experiment: Antiproliferative activity against human HCT-116 cells harboring KRAS G13D mutant assessed as inhibition of cell viability after 24 hrs by MTT assay; assay type: functional, cell-based; conditions: HCT-116, 24 h
CT26 [8] = experiment: Inhibition of KRAS G12D mutant (unknown origin) downstream signalling in mouse CT26 cells assessed as suppression of Raf phosphorylation incubated for 24 hrs by pull down based Western blotting analysis; assay type: cell-based; conditions: dose <= 16.0 µM, DDE = dose-dependent effect
SW1990 [9] = experiment: Induction of apoptosis in human SW1990 cells assessed as early apoptotic cells at 4 uM measured after 24 hrs by PI/Annexin V staining based flow cytometric analysis (reference value: 10.7%); assay type: functional
CT26 [10] = experiment: In vivo inhibition of KRAS G12D mutant (unknown origin) mediated downstream signalling in mouse CT26 cells allografted in BALB/c mouse assessed as decrease in phosphorylation level of Raf in tumor tissue at 40 to 60 mg/kg, ip administered once a day for 10 days by Western blotting analysis; assay type: functional, organism-based; conditions: dose 40-60 mg/kg, time 10.0 day
SW1990 [11] = experiment: Inhibition of GTP bound KRAS in human SW1990 cells assessed as down regulation of KRAS-GTP protein level incubated for 12 hrs by Pull-Down based Western blotting analysis; assay type: functional, cell-based; conditions: dose 10-20 µM, DDE = dose-dependent effect
CT26 [12] = experiment: Induction of apoptosis in mouse CT26 cells assessed as early apoptotic cells at 8 uM measured after 24 hrs by PI/Annexin V staining based flow cytometric analysis (reference value: 11.2%); assay type: functional
[13] = test system: GTPase KRas (Homo sapiens), P01116 [G12D]; experiment: Binding affinity to human his-tagged KRAS G12D mutant assessed as gibbs free energy change by isothermal titration calorimetry
Chain of GTPase KRas (Homo sapiens), P01116 [G12D] (P01116 whole entry G12D, looked up): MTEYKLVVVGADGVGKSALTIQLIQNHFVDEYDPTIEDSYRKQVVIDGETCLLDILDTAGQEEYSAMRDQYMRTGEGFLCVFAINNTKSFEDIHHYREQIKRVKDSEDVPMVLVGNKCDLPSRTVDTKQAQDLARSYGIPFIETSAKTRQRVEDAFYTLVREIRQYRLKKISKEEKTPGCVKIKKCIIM

SW1990 [14] = experiment: Induction of apoptosis in human SW1990 cells assessed as necrotic cells at 4 uM measured after 24 hrs by PI/Annexin V staining based flow cytometric analysis (reference value: 2.69%); assay type: functional
[15] = test system: GTPase KRas (Homo sapiens), P01116 [G12D]; experiment: Binding affinity to human his-tagged KRAS G12D mutant assessed as change in entropy by isothermal titration calorimetry
[16] = Toxicity in BALB/c mouse allografted with mouse CT26 cells assessed as effect on heart morphology at 40 to 60 mg/kg, ip administered once a day for 10 days by H and E staining based microscopic analysis; assay type: organism-based; conditions: in vivo, 240 h, dose 40-60 mg/kg, time 10 day
SW1990 [17] = experiment: Induction of apoptosis in human SW1990 cells assessed as late apoptotic cells at 4 uM measured after 24 hrs by PI/Annexin V staining based flow cytometric analysis (reference value: 3.75%); assay type: functional
SW1990 [18] = experiment: Induction of apoptosis in human SW1990 cells assessed as late apoptotic cells at 2 uM measured after 24 hrs by PI/Annexin V staining based flow cytometric analysis (reference value: 3.75%); assay type: functional
CT26 [19] = experiment: Induction of apoptosis in mouse CT26 cells assessed as viable cells at 2 uM measured after 24 hrs by PI/Annexin V staining based flow cytometric analysis (reference value: 84.8%); assay type: functional; conditions: read-out: Activity
PANC-1 = experiment: Antiproliferative activity against human PANC1 cells harboring KRAS G12D mutant assessed as inhibition of cell viability after 24 hrs by MTT assay; assay type: functional, cell-based; conditions: PANC-1, 24 h
[20] = Toxicity in BALB/c mouse allografted with mouse CT26 cells assessed as WBC level at 40 to 60 mg/kg, ip administered once a day for 10 days (reference value: 3.090 to 6.730 10^9/L); assay type: organism-based; conditions: in vivo, 240 h, dose 40-60 mg/kg, time 10 day
[21] = Toxicity in BALB/c mouse allografted with mouse CT26 cells assessed as MPV level at 40 to 60 mg/kg, ip administered once a day for 10 days (reference value: 15 to 63 fL); assay type: organism-based; conditions: in vivo, 240 h, dose 40-60 mg/kg, time 10 day
CT26 [22] = experiment: Antitumor activity against mouse CT26 cells allografted in BALB/c mouse assessed as inhibition of tumor growth at 40 mg/kg, ip administered once a day for 10 days; assay type: functional; conditions: CT26, 240 h, time 10 day, read-out: TGI
SW1990 [23] = experiment: Induction of apoptosis in human SW1990 cells assessed as necrotic cells at 8 uM measured after 24 hrs by PI/Annexin V staining based flow cytometric analysis (reference value: 2.69%); assay type: functional
[24] = test system: GTPase KRas (Homo sapiens), P01116 [G12D]; experiment: Binding affinity to human his-tagged KRAS G12D mutant assessed as change in enthalpy by isothermal titration calorimetry
SW1990 [25] = experiment: Induction of apoptosis in human SW1990 cells assessed as late apoptotic cells at 8 uM measured after 24 hrs by PI/Annexin V staining based flow cytometric analysis (reference value: 3.75%); assay type: functional
[26] = Toxicity in BALB/c mouse allografted with mouse CT26 cells assessed as lymphocyte level at 40 to 60 mg/kg, ip administered once a day for 10 days (reference value: 5.6 to 35.2 %); assay type: organism-based; conditions: in vivo, 240 h, dose 40-60 mg/kg, time 10 day
HeLa = experiment: Antiproliferative activity against human HeLa cells harboring wild type KRAS assessed as inhibition of cell viability after 24 hrs by MTT assay; assay type: functional, cell-based
CT26 [27] = experiment: Induction of apoptosis in mouse CT26 cells assessed as viable cells at 8 uM measured after 24 hrs by PI/Annexin V staining based flow cytometric analysis (reference value: 84.8%); assay type: functional; conditions: read-out: Activity
SW1990 [28] = experiment: Induction of apoptosis in human SW1990 cells assessed as early apoptotic cells at 8 uM measured after 24 hrs by PI/Annexin V staining based flow cytometric analysis (reference value: 10.7%); assay type: functional
[29] = Toxicity in BALB/c mouse allografted with mouse CT26 cells assessed as eosinophil level at 40 to 60 mg/kg, ip administered once a day for 10 days (reference value: 16 to 17.3 %); assay type: organism-based; conditions: in vivo, 240 h, dose 40-60 mg/kg, time 10 day

pIC50 (NCI-H358): 5.35
pIC50 (HCT-116): 5.33
deltaG [13]: -10.2 kcal/mol
-TdeltaS [15]: 16.4 kcal/mol
pIC50 (PANC-1): 5.64
deltaH [24]: -26.6 kcal/mol
pIC50 (HeLa): 5.13
Structure (SMILES): COc1ccc(C(F)(F)F)cc1-c1cc2c(N3CC4CCC(C3)N4)ncnc2s1
Activity (CT26 [1]): 4.59%
Activity (SW1990 [2]): 3.11%
Activity [3]: Non-Toxic
Activity (CT26 [4]): 36.4%
viability at 8 µM (SW1990 [5]): 4.26%
Activity (SW1990 [6]): 3.87%
Activity (CT26 [7]): 20.9%
Activity (CT26 [8]): Dde
Activity (SW1990 [9]): 14.2%
Activity (CT26 [10]): Active
inhibition (SW1990 [11]): Dde
Activity (CT26 [12]): 24.4%
Activity (SW1990 [14]): 8.76%
Activity [16]: Non-Toxic
Activity (SW1990 [17]): 29.2%
Activity (SW1990 [18]): 18.6%
viability at 2 µM (CT26 [19]): 78.6%
Activity [20]: 5.05 10^9/L
Activity [21]: 6.2 fL
inhibition in vivo at 40 mg/kg (CT26 [22]): 42%
Activity (SW1990 [23]): 1.81%
Activity (SW1990 [25]): 56.9%
Activity [26]: 4.9%
viability at 8 µM (CT26 [27]): 8.57%
Activity (SW1990 [28]): 37.1%
Activity [29]: 0.2%
